Assay results: patent US9024017B2, “Octahydro-cyclopentapyrrolyl antagonists of CCR2” (Janssen Pharmaceutica NV, priority 2012, dated 2015)

Target: T1, CCR2 (Homo sapiens, UniProt P41597)
T1 construct: host or cells: THP-1 (human monocytic cell line)
Test: MCP-1 Receptor Binding Assay in THP-1 Cells
Details: read-out: MCP1B_v3 IC50
How it was run: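 Human monocytic THP-1 cells incubated 2 h at 30 °C with 0.5 nM 125I-MCP-1 and varying concentrations of test compound or unlabelled MCP-1. Cells filter-harvested and counted by scintillation; blank subtracted, compared with vehicle; nonspecific binding with 1 μM cold MCP-1.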

T1 sequence (P41597 whole entry): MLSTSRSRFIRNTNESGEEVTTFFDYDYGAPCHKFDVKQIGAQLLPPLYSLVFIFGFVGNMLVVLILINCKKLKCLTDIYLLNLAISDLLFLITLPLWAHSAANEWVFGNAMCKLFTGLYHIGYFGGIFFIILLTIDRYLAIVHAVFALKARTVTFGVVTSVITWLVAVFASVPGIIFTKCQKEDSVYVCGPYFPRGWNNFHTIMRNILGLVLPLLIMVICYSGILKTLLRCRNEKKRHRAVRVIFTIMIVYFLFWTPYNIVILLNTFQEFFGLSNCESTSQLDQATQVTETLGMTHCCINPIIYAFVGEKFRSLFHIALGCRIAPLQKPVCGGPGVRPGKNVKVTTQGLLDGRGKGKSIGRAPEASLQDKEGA

With `COC1COCCC1N[C@@H]1C[C@H]2CN(C(C)=O)C[C@@]2(C(=O)N2CCc3ncc(C(F)(F)F)cc3C2)C1` (relative stereo) [Example 66, 1-((3aR,5R,6aR)-5-(((3S*,4S*)-3-Methoxytetrahydro-2H-pyran-4-yl)amino)-3a-(3-(trifluoromethyl)-5,6,7,8-tetrahydro-1,6-naphthyridine-6-carbonyl)hexahydrocyclopenta-[c]pyrrol-2(1H)-yl)ethanone] the IC50 was 400 nM.
For `COC1COCCC1N[C@@H]1C[C@H]2CN(C(=O)COc3ccccc3)C[C@@]2(C(=O)N2CCc3ncc(C(F)(F)F)cc3C2)C1` (relative stereo) [Example 68, 1-((3aR,5R,6aR)-5-(((3S*,4S*)-3-Methoxytetrahydro-2H-pyran-4-yl)amino)-3a-(3-(trifluoromethyl)-5,6,7,8-tetrahydro-1,6-naphthyridine-6-carbonyl)hexahydrocyclopenta-[c]pyrrol-2(1H)-yl)-2-phenoxyethanone], the IC50 was 130 nM.
`COC1COCCC1N[C@@H]1C[C@H]2CN(C(=O)c3ccccc3)C[C@@]2(C(=O)N2CCc3ncc(C(F)(F)F)cc3C2)C1` (relative stereo) [Example 69, ((3aR,5R,6aR)-2-Benzoyl-5-(((3S*,4S*)-3-methoxytetrahydro-2H-pyran-4-yl)amino)-octahydrocyclopenta[c]pyrrol-3a-yl)(3-(trifluoromethyl)-7,8-dihydro-1,6-naphthyridin-6(5H)-yl)methanone] was tested, and the IC50 was 150 nM.
`COC1COCCC1N[C@@H]1C[C@H]2CN(C(=O)c3ncco3)C[C@@]2(C(=O)N2CCc3ncc(C(F)(F)F)cc3C2)C1` (relative stereo) [Example 70, ((3aR,5R,6aR)-5-(((3S*,4S*)-3-Methoxytetrahydro-2H-pyran-4-yl)amino)-2-(oxazole-2-carbonyl)octahydrocyclopenta[c]pyrrol-3a-yl)(3-(trifluoromethyl)-7,8-dihydro-1,6-naphthyridin-6(5H)-yl)methanone] was tested, and the IC50 was 80 nM.
For `COC1COCCC1N[C@@H]1C[C@H]2CN(C(=O)c3ccno3)C[C@@]2(C(=O)N2CCc3ncc(C(F)(F)F)cc3C2)C1` (relative stereo) [Example 71, Isoxazol-5-yl((3aR,5R,6aR)-5-(((3S*,4S*)-3-methoxytetrahydro-2H-pyran-4-yl)amino)-3a-(3-(trifluoromethyl)-5,6,7,8-tetrahydro-1,6-naphthyridine-6-carbonyl)hexahydrocyclopenta-[c]pyrrol-2(1H)-yl)methanone], the IC50 was 160 nM.
Work on `COC1COCCC1N[C@@H]1C[C@H]2CN(C(=O)c3cocn3)C[C@@]2(C(=O)N2CCc3ncc(C(F)(F)F)cc3C2)C1` (relative stereo) [Example 72, ((3aR,5R,6aR)-5-(((3S*,4S*)-3-Methoxytetrahydro-2H-pyran-4-yl)amino)-2-(oxazole-4-carbonyl)octahydrocyclopenta[c]pyrrol-3a-yl)(3-(trifluoromethyl)-7,8-dihydro-1,6-naphthyridin-6(5H)-yl)methanone] yielded an IC50 of 30 nM.
In the case of `C#CC(=O)N1C[C@@H]2C[C@@H](NC3CCOCC3OC)C[C@]2(C(=O)N2CCc3ncc(C(F)(F)F)cc3C2)C1` (relative stereo) [Example 73, 1-((3aR,5R,6aR)-5-(((3S*,4S*)-3-Methoxytetrahydro-2H-pyran-4-yl)amino)-3a-(3-(trifluoromethyl)-5,6,7,8-tetrahydro-1,6-naphthyridine-6-carbonyl)hexahydrocyclopenta-[c]pyrrol-2(1H)-yl)prop-2-yn-1-one], the IC50 is reported as 360 nM.
`COC1COCCC1N[C@@H]1C[C@H]2CN(C(=O)CNC(C)=O)C[C@@]2(C(=O)N2CCc3ncc(C(F)(F)F)cc3C2)C1` (relative stereo) [Example 75, N-(2-((3aR,5R,6aR)-5-(((3S*,4S*)-3-Methoxytetrahydro-2H-pyran-4-yl)amino)-3a-(3-(trifluoromethyl)-5,6,7,8-tetrahydro-1,6-naphthyridine-6-carbonyl)hexahydrocyclopenta-[c]pyrrol-2(1H)-yl)-2-oxoethyl)acetamide] showed an IC50 of 170 nM.
With `COC1COCCC1N[C@@H]1C[C@H]2CN(C(=O)CN(C)C)C[C@@]2(C(=O)N2CCc3ncc(C(F)(F)F)cc3C2)C1` (relative stereo) [Example 76, 2-(Dimethylamino)-1-((3aR,5R,6aR)-5-(((3S*,4S*)-3-methoxytetrahydro-2H-pyran-4-yl)amino)-3a-(3-(trifluoromethyl)-5,6,7,8-tetrahydro-1,6-naphthyridine-6-carbonyl)hexahydrocyclopenta[c]pyrrol-2(1H)-yl)ethanone] the IC50 was 160 nM.
`COC1COCCC1N[C@@H]1C[C@H]2CN(C(=O)CCN(C)C)C[C@@]2(C(=O)N2CCc3ncc(C(F)(F)F)cc3C2)C1` (relative stereo) [Example 77, 3-(Dimethylamino)-1-((3aR,5R,6aR)-5-(((3S*,4S*)-3-methoxytetrahydro-2H-pyran-4-yl)amino)-3a-(3-(trifluoromethyl)-5,6,7,8-tetrahydro-1,6-naphthyridine-6-carbonyl)hexahydrocyclopenta[c]pyrrol-2(1H)-yl)propan-1-one] gave an IC50 of 230 nM.
With `COC1COCCC1N[C@@H]1C[C@H]2CN(C(=O)CCCN(C)C)C[C@@]2(C(=O)N2CCc3ncc(C(F)(F)F)cc3C2)C1` (relative stereo) [Example 78, 4-(Dimethylamino)-1-((3aR,5R,6aR)-5-(((3S*,4S*)-3-methoxytetrahydro-2H-pyran-4-yl)amino)-3a-(3-(trifluoromethyl)-5,6,7,8-tetrahydro-1,6-naphthyridine-6-carbonyl)-hexahydrocyclopenta[c]pyrrol-2(1H)-yl)butan-1-one] the IC50 was 230 nM.
With `COC1COCCC1N[C@@H]1C[C@H]2CN(C(=O)CCN3CCCCC3)C[C@@]2(C(=O)N2CCc3ncc(C(F)(F)F)cc3C2)C1` (relative stereo) [Example 79, 1-((3aR,5R,6aR)-5-(((3S*,4S*)-3-Methoxytetrahydro-2H-pyran-4-yl)amino)-3a-(3-(trifluoromethyl)-5,6,7,8-tetrahydro-1,6-naphthyridine-6-carbonyl)hexahydrocyclopenta-[c]pyrrol-2(1H)-yl)-3-(piperidin-1-yl)propan-1-one] the IC50 was 500 nM.
In the case of `COC1COCCC1N[C@@H]1C[C@H]2CN(C(=O)CCN3CCOCC3)C[C@@]2(C(=O)N2CCc3ncc(C(F)(F)F)cc3C2)C1` (relative stereo) [Example 80, 1-((3aR,5R,6aR)-5-(((3S*,4S*)-3-Methoxytetrahydro-2H-pyran-4-yl)amino)-3a-(3-(trifluoromethyl)-5,6,7,8-tetrahydro-1,6-naphthyridine-6-carbonyl)hexahydrocyclopenta-[c]pyrrol-2(1H)-yl)-3-morpholinopropan-1-one], the IC50 is reported as 230 nM.
Work on `COC1COCCC1N[C@@H]1C[C@H]2CN(C(=O)c3nccs3)C[C@@]2(C(=O)N2CCc3ncc(C(F)(F)F)cc3C2)C1` (relative stereo) [Example 81, ((3aR,5R,6aR)-5-(((3S*,4S*)-3-Methoxytetrahydro-2H-pyran-4-yl)amino)-2-(thiazole-2-carbonyl)octahydrocyclopenta[c]pyrrol-3a-yl)(3-(trifluoromethyl)-7,8-dihydro-1,6-naphthyridin-6(5H)-yl)methanone] yielded an IC50 of 40 nM.
With `COC1COCCC1N[C@@H]1C[C@H]2CN(C(=O)C#CC3CC3)C[C@@]2(C(=O)N2CCc3ncc(C(F)(F)F)cc3C2)C1` (relative stereo) [Example 86, 3-Cyclopropyl-1-((3aR,5R,6aR)-5-(((3S*,4S*)-3-methoxytetrahydro-2H-pyran-4-yl)amino)-3a-(3-(trifluoromethyl)-5,6,7,8-tetrahydro-1,6-naphthyridine-6-carbonyl)hexahydro-cyclopenta[c]pyrrol-2(1H)-yl)prop-2-yn-1-one] the IC50 was 90 nM.
`COC1COCCC1N[C@@H]1C[C@H]2CN(C(=O)CNC(=O)OC(C)(C)C)C[C@@]2(C(=O)N2CCc3ncc(C(F)(F)F)cc3C2)C1` (relative stereo) [Example 87, tert-Butyl (2-((3aR,5R,6aR)-5-(((3S*,4S*)-3-methoxytetrahydro-2H-pyran-4-yl)amino)-3a-(3-(trifluoromethyl)-5,6,7,8-tetrahydro-1,6-naphthyridine-6-carbonyl)hexahydrocyclopenta[c]pyrrol-2(1H)-yl)-2-oxoethyl)carbamate] showed an IC50 of 360 nM.
In the case of `COC1COCCC1N[C@@H]1C[C@H]2CN(C(=O)/C=C/CN3CCCC3)C[C@@]2(C(=O)N2CCc3ncc(C(F)(F)F)cc3C2)C1` (relative stereo) [Example 88, (E)-1-((3aR,5R,6aR)-5-(((3S*,4S*)-3-methoxytetrahydro-2H-pyran-4-yl)amino)-3a-(3-(trifluoromethyl)-5,6,7,8-tetrahydro-1,6-naphthyridine-6-carbonyl)hexahydro-cyclopenta[c]pyrrol-2(1H)-yl)-4-(pyrrolidin-1-yl)but-2-en-1-one], the IC50 is reported as 40 nM.
Work on `CO[C@@H]1COCC[C@@H]1N[C@@H]1C[C@H]2CN(C(=O)/C=C/c3ccc(C(=O)O)cc3)C[C@@]2(C(=O)N2CCc3ccc(C(F)(F)F)cc3C2)C1` (relative stereo) [Example 89, 4-((E)-3-((3aR,5R,6aR)-5-(((3S*,4S*)-3-methoxytetrahydro-2H-pyran-4-yl)amino)-3a-(7-(trifluoromethyl)-1,2,3,4-tetrahydroisoquinoline-2-carbonyl)hexahydrocyclopenta-[c]pyrrol-2(1H)-yl)-3-oxoprop-1-en-1-yl)benzoic acid] yielded an IC50 of 10 nM.
In the case of `CO[C@@H]1COCC[C@@H]1N[C@@H]1C[C@H]2CN(C(=O)/C=C/c3cccc(C(=O)O)c3)C[C@@]2(C(=O)N2CCc3ccc(C(F)(F)F)cc3C2)C1` (relative stereo) [Example 90, 3-((E)-3-((3aR,5R,6aR)-5-(((3S*,4S*)-3-methoxytetrahydro-2H-pyran-4-yl)amino)-3a-(7-(trifluoromethyl)-1,2,3,4-tetrahydroisoquinoline-2-carbonyl)hexahydrocyclopenta-[c]pyrrol-2(1H)-yl)-3-oxoprop-1-en-1-yl)benzoic acid], the IC50 is reported as 10 nM.
